This note sets out measurements from patent US9434701B2, “Aminoquinoxaline derivatives for treatment of neurodegenerative diseases” (CENTRE NATIONAL DE LA RECHERCHE SCIENTIFIQUE (CNRS), priority 2011, dated 2016).

Holding throughout (format): cell-based
Assay [1] deals with fetal dopaminergic neurons (TH+) in culture. In words: dopaminergic neuron spontaneous degeneration model, second protocol (Mourlevat et al.), TH+ neuron count after 10 days. Particulars: Rattus norvegicus, 240 h, read-out: TH+ neurons in % of control ± Std. Err. Here is the method:
This second protocol is described in the article by Mourlevat, P. P. Michel et al. Molecular Pharmacology 2003, 64:578-586 (“Prevention of Dopaminergic Neuronal Death by Cyclic AMP in Mixed Neuronal/Glial Mesencephalic Cultures Requires the Repression of Presumptive Astrocytes”). […] Compounds according to the invention were evaluated at 50 μM except compound 4bc which was assessed at 100 μM.

Assay [2] relates to dopaminergic neurons (TH+) of rat embryo ventral midbrain culture. Kind of assay: neuritogenic activity: neurite outgrowth per cell / differentiation of TH+ neurons. Particulars: Rattus norvegicus, Neuron; compound at 100 nM; read-out: Diff in % of control ± SEM. Here is the method: Quinoxaline derivatives were tested on a dopaminergic neuron spontaneous degeneration model in culture according to the protocol described in the article by F. Schmidt et al. […] This model consists of culturing rat embryo ventral midbrain. This part of the brain in culture contains a proportion of dopaminergic neurons of 5% of the total neurons; the other neurons are mainly GABAergic. These cultures are also composed of glial cells, i.e., astrocytes, oligodendrocytes and microglia. These cultures are characterized by progressive neuron death. […] To assess the neuritogenic activity of compounds according to the invention, neurite outgrowth per cell was quantified using the Neurite Outgrowth software developed by Xplora Nova. At least 60 neurons per condition were photographed and studied.

For assay [3] the test system is unchanged. Kind of assay: dopaminergic neuron spontaneous degeneration model in culture, TH+ neuron count after 8 days (Schmidt et al. protocol). Particulars: Rattus norvegicus, Neuron, 192 h; compound at 100 nM; 8 days of culture; read-out: TH+ neurons in % of control ± SEM. Here is the method: Quinoxaline derivatives were tested on a dopaminergic neuron spontaneous degeneration model in culture according to the protocol described in the article by F. Schmidt et al. […] This model consists of culturing rat embryo ventral midbrain. This part of the brain in culture contains a proportion of dopaminergic neurons of 5% of the total neurons; the other neurons are mainly GABAergic. These cultures are also composed of glial cells, i.e., astrocytes, oligodendrocytes and microglia. These cultures are characterized by progressive neuron death.

The mark [4] stands for this setting: compound at 50 μM, 10 days of culture, one experiment in triplicate.

SMILES strings stand for the structures. Like-named read-outs stand apart in the source and are kept apart here.

Consider `Nc1ccc2ncc(-c3ccccc3)nc2c1` [Compound 4ac], for which the activity at 50 µM in assay [1] was 189 ± 11%.

For `CCCCc1cnc2ccc(N)cc2n1` [Compound 4ad], the activity at 0.1 µM in assay [2] turned out to be 118%; in assay [3], 101%. The like results for `CCCCc1nc2cc(N)ccc2nc1C` [Compound 4bd] were, in that order, 102% and 121%. For `COc1ccc(-c2nc3cc(N)ccc3nc2-c2ccccc2)cc1` [Compound 4ch], the activity at 50 µM in assay [1] (setting [4]) was found to be 130 ± 10%. For the compound `CCCCCCc1nc2ccc(N)cc2nc1CCCC` [Compound 4ed], the activity at 0.1 µM in assay [2] is 104%; in assay [3] it was 115%.

Take `Cc1nc2ccc(N)c(Br)c2nc1-c1ccccc1` [Compound 7bc]: the activity at 50 µM in assay [1] (setting [4]) is 153 ± 12%.

For `Cc1nc2ccc(N)c(Cl)c2nc1-c1ccccc1` [Compound 8bc], the activity at 50 µM in assay [1] (setting [4]) worked out at 129 ± 8%.

Consider `C#CCNc1ccc2nc(C)c(-c3ccccc3)nc2c1` [Compound 9bc], for which, in assay [1] (setting [4]), the activity at 50 µM was determined as 174 ± 15%.

For `C#CCNc1ccc2nc(C)c(-c3ccc(F)cc3)nc2c1` [Compound 9bm], the activity at 50 µM in assay [1] (setting [4]) is 166 ± 15%.
